Article PMC3265452 (PLoS Neglected Tropical Diseases, 2012)
Structures can show the parent of a compound that is named as a salt. Where two headings read alike, the source gives them in different places.

Target: AaDOP2 (Aedes aegypti, UniProt H6D5H2)
Experiment: AaDOP2 antagonist screen of the LOPAC1280 library (HEK-CRELuc-Aadop2 cells, luminescence)
Assay type: cell-based
[1] = 10 µM compound, 300 nM dopamine, 2 hr, hit = compound effect <20

AaDOP2, sequence (H6D5H2 1-476): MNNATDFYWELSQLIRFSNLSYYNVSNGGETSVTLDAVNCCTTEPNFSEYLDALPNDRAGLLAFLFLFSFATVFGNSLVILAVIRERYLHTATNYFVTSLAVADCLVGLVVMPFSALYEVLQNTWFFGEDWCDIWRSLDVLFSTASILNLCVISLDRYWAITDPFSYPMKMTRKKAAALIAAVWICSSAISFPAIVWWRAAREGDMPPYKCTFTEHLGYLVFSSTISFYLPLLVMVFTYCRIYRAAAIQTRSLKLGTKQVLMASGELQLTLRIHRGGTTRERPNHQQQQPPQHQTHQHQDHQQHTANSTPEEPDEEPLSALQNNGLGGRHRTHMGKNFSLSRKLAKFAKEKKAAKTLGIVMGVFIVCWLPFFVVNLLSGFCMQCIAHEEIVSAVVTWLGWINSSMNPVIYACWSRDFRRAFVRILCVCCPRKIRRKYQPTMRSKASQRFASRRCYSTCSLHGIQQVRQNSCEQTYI

SMILES | Compound effect (percent receptor signaling in presence of test compound, relative lux units relative to the SCH23390 control) | further results
O=C(O)c1cc(=O)c2c(Cl)cc(Cl)cc2[nH]1 [Compound 460, 5,7-Dichlorokynurenic acid] |  | Compound effect (percent receptor signaling in presence of test compound, relative lux units relative to the SCH23390 control) [1]: 102%
Cl.O=C(OC1CCN(CCCl)CC1)C(c1ccccc1)c1ccccc1 [Compound 461, 4-Diphenylacetoxy-N-(2-chloroethyl)piperidine hydrochloride] | 99 | 
NCCCCCCCCCCN [Compound 462, 1,10-Diaminodecane] | 99 | 
Br.CO[C@H]1CC=C2CCN3CCC4=C(CC(=O)OC4)[C@]23C1 [Compound 463, Dihydro-beta-erythroidine hydrobromide] | 103 | 
COc1cc(C[C@@H](C)N)c(OC)cc1I.Cl [Compound 464, ( R)-(-)-DOI hydrochloride] | 69 | 
CC(C)[C@@]1(NC(=O)[C@@H]2C[C@@H]3c4cccc5[nH]cc(c45)C[C@H]3N(C)C2)O[C@@]2(O)[C@@H]3CCCN3C(=O)[C@H](Cc3ccccc3)N2C1=O.CS(=O)(=O)O [Compound 465, Dihydroergocristine methanesulfonate] | 32 | 
Nc1cc(=O)[nH]c(N)n1 [Compound 466, 2,6-Diamino-4-pyrimidinone] | 114 | 
CN1C2CCC1CC(OC(c1ccc(F)cc1)c1ccc(F)cc1)C2.Cl (stereo not drawn) [Compound 468, 4',4''-Difluor-3alpha-(diphenylmethoxy)tropane hydrochloride] | 123 | 
CCCN1CCC[C@@H](c2cccc(C#N)c2)C1.Cl [Compound 469, S(-)-DS 121 hydrochloride] |  | Compound effect (percent receptor signaling in presence of test compound, relative lux units relative to the SCH23390 control) [1]: 94%
CCN(CC)C(=O)c1ccc(O)c(OC)c1 [Compound 470, Vanillic acid diethylamide] |  | Compound effect (percent receptor signaling in presence of test compound, relative lux units relative to the SCH23390 control) [1]: 101%
CC(C)C[C@H](NC(=O)[C@H](O)[C@H](N)Cc1ccccc1)C(=O)O [Compound 471, Epibestatin hydrochloride] | 107 | 
CCc1cccc2c3c([nH]c12)C(CC)(CC(=O)O)OCC3 (stereo not shown) [Compound 472, Etodolac] | 98 | 
CSc1ccc(C(=O)c2[nH]c(=O)[nH]c2C)cc1 [Compound 473, Enoximone] | 103 | 
COc1cc([C@@H]2c3cc4c(cc3[C@@H](O[C@@H]3O[C@@H]5CO[C@@H](C)O[C@H]5[C@H](O)[C@H]3O)[C@H]3COC(=O)[C@H]23)OCO4)cc(OC)c1O [Compound 474, Etoposide] | 90 | 
CCCCCCCCCCCCCCCCCCOCC(COP(=O)([O-])OCC[N+](C)(C)C)OC (stereo not shown) [Compound 475, ET-18-OCH3] |  | Compound effect (percent receptor signaling in presence of test compound, relative lux units relative to the SCH23390 control) [1]: 113%
CCOC(=O)c1cnc2c(cnn2CC)c1NN=C(C)C [Compound 476, Etazolate hydrochloride] | 136 | 
Nc1ncnc2c1c(-c1ccc(Oc3ccccc3)cc1)cn2C1CCCC1 [Compound 477, 7-Cyclopentyl-5-(4-phenoxy)phenyl-7H-pyrrolo[2,3-d]pyrimidin-4-ylamine] |  | Compound effect (percent receptor signaling in presence of test compound, relative lux units relative to the SCH23390 control) [1]: 76%
CC[C@H]1CN2CCc3cc(OC)c(OC)cc3[C@@H]2C[C@@H]1C[C@H]1NCCc2cc(OC)c(OC)cc21 [Compound 478, Emetine dihydrochloride hydrate] | 14 | inhibition at 10 µM (read-out: % of the SCH23390 effect (percent inhibition of receptor response relative to the SCH23390 control)): 86%
CC(C)C[C@H](NC(=O)[C@H]1O[C@@H]1C(=O)O)C(=O)NCCCCN=C(N)N [Compound 480, E-64] | 112 | 
Br.CCSC(=N)N [Compound 482, S-Ethylisothiourea hydrobromide] |  | Compound effect (percent receptor signaling in presence of test compound, relative lux units relative to the SCH23390 control) [1]: 104%
CN[C@@H](C)[C@H](O)c1ccccc1.CN[C@@H](C)[C@H](O)c1ccccc1.O=S(=O)(O)O [Compound 483, (-)-Ephedrine hemisulfate] | 60 | 
CC[N+](C)(C)c1cccc(O)c1 [Compound 484, Edrophonium chloride] | 118 | 
CCC1(C2=NCCN2)Cc2ccccc2O1 (stereo not shown) [Compound 485, Efaroxan hydrochloride] | 74 | 
Cc1c2ccncc2c(C)c2c1[nH]c1ccccc12 [Compound 486, Ellipticine] | 98 | 

SMILES | Compound effect (percent receptor signaling in presence of test compound, relative lux units relative to the SCH23390 control) | further results
O=c1c2ccccc2[se]n1-c1ccccc1 [Compound 487, Ebselen] | 102 | 
CCN1C(=O)C=CC1=O [Compound 490, N-Ethylmaleimide] | 87 | 
O=C(O)CN(CCOCCOCCN(CC(=O)O)CC(=O)O)CC(=O)O [Compound 492, Ethylene glycol-bis(2-aminoethylether)-N,N,N',N'-tetraacetic acid] | 121 | 
CCC1(C)CC(=O)NC1=O (stereo not shown) [Compound 494, Ethosuximide] | 146 | 
O=C(O)[C@@H]1[C@H](C(=O)O)[C@H]2CC[C@@H]1O2 [Compound 495, Endothall] | 117 | 
Cc1cc(O)c2c(c1)C(=O)c1cc(O)cc(O)c1C2=O [Compound 496, Emodin] | 49 | 
CNC(=O)Oc1ccc2c(c1)[C@]1(C)CCN(C)[C@@H]1N2C [Compound 497, (-)-Physostigmine] | 93 | 
CCCN(CC1CC1)c1nc(C)nc(Nc2c(Cl)cc(Cl)cc2Cl)c1Cl [Compound 498, NBI 27914] | 90 | 
C[C@]12CC[C@@H]3c4ccc(O)cc4CC[C@H]3[C@@H]1CC[C@@H]2O [Compound 499, beta-Estradiol] | 112 | 
C[C@]12CC[C@@H]3c4ccc(O)cc4CC[C@H]3[C@@H]1CCC2=O [Compound 500, Estrone] | 91 | 
COC(=O)c1cc2c(cn1)[nH]c1ccccc12 [Compound 501, Methyl beta-carboline-3-carboxylate] | 118 | 
CNC(=O)c1cc2c(cn1)[nH]c1ccccc12 [Compound 502, N-Methyl-beta-carboline-3-carboxamide] | 80 | 
CCc1c(C(=O)OC)ncc2[nH]c3cc(OC)c(OC)cc3c12 [Compound 503, Methyl 6,7-dimethoxy-4-ethyl-beta-carboline-3-carboxylate] | 79 | 
CCc1cc(Cl)c(OC)c(C(=O)NC[C@@H]2CCCN2CC)c1O.Cl [Compound 505, S-(-)-Eticlopride hydrochloride] |  | Compound effect (percent receptor signaling in presence of test compound, relative lux units relative to the SCH23390 control) [1]: 85%
OC[C@H]1O[C@@H](n2cnc3c(N[C@H]4CC5CCC4C5)ncnc32)[C@H](O)[C@@H]1O (stereo partly drawn) [Compound 506, (S)-ENBA] |  | Compound effect (percent receptor signaling in presence of test compound, relative lux units relative to the SCH23390 control) [1]: 112%
CCCCCCC(C(C)O)n1cnc2c(N)ncnc21.Cl (stereo not drawn) [Compound 507, erythro-9-(2-Hydroxy-3-nonyl)adenine hydrochloride] |  | Compound effect (percent receptor signaling in presence of test compound, relative lux units relative to the SCH23390 control) [1]: 128%
CC(C)[C@@]1(NC(=O)[C@@H]2C=C3c4cccc5[nH]cc(c45)C[C@H]3N(C)C2)O[C@@]2(O)[C@@H]3CCCN3C(=O)[C@H](Cc3ccccc3)N2C1=O [Compound 508, Ergocristine] | 100 | 
NC(=O)OCC(COC(N)=O)c1ccccc1 [Compound 509, Felbamate] | 113 | 
CC(=O)O[C@H]1C[C@@]2(C)[C@@H](C[C@@H](O)[C@H]3[C@@]4(C)CC[C@@H](O)[C@@H](C)[C@@H]4CC[C@@]32C)/C1=C(\CCC=C(C)C)C(=O)[O-].[Na+] [Compound 510, Fusidic acid sodium] |  | Compound effect (percent receptor signaling in presence of test compound, relative lux units relative to the SCH23390 control) [1]: 131%
CC(Cc1ccc(O)cc1)NCC(O)c1cc(O)cc(O)c1 (stereo not shown) [Compound 511, Fenoterol hydrobromide] | 136 | 
CNCC[C@H](Oc1ccc(C(F)(F)F)cc1)c1ccccc1.Cl [Compound 512, S-(+)-Fluoxetine hydrochloride] | 77 | 
CNCC[C@@H](Oc1ccc(C(F)(F)F)cc1)c1ccccc1.Cl [Compound 513, R-(-)-Fluoxetine hydrochloride] | 79 | 
COCCCC/C(=N\OCCN)c1ccc(C(F)(F)F)cc1 [Compound 514, Fluvoxamine maleate] | 114 | 
COc1ccc2c(c1)c(CC(=O)O)c(C)n2Cc1ccc(F)cc1 [Compound 515, 1-(4-Fluorobenzyl)-5-methoxy-2-methylindole-3-acetic acid] | 103 | 
